From PubChem BioAssay AID1259407 (Chemical Carcinogenesis Research Information System (CCRIS), 2018) come the findings set out here.

The source made the active and inactive calls. How the calls were made is not given here.

The subject of this data set is CCRIS mutagenicity, Ames/micronucleus/aberration tests. Description: CCRIS mutagenicity studies.
Where [1] appears, read: Test System: AMES SALMONELLA TYPHIMURIUM, Strain/Indicator: TA98, Metabolic Activation: NONE, Method: PREINCUBATION
Setting [2] is: Test System: AMES SALMONELLA TYPHIMURIUM, Strain/Indicator: TA100, Metabolic Activation: NONE, Method: PREINCUBATION
The mark [3] stands for this setting: Test System: AMES SALMONELLA TYPHIMURIUM, Strain/Indicator: TA1535, Metabolic Activation: NONE, Method: PREINCUBATION
Setting [4] is: Test System: AMES SALMONELLA TYPHIMURIUM, Strain/Indicator: TA1537, Metabolic Activation: NONE, Method: PREINCUBATION
Setting [5] is: Test System: AMES SALMONELLA TYPHIMURIUM, Strain/Indicator: TA98, Metabolic Activation: NONE, Method: STANDARD PLATE.
Where [6] appears, read: Test System: AMES SALMONELLA TYPHIMURIUM, Strain/Indicator: TA100, Metabolic Activation: NONE, Method: STANDARD PLATE.
The mark [7] stands for this setting: Test System: AMES SALMONELLA TYPHIMURIUM, Strain/Indicator: TA1535, Metabolic Activation: NONE, Method: STANDARD PLATE.
The mark [8] stands for this setting: Test System: AMES SALMONELLA TYPHIMURIUM, Strain/Indicator: TA1537, Metabolic Activation: NONE, Method: STANDARD PLATE.
Where [9] appears, read: Test System: AMES SALMONELLA TYPHIMURIUM, Strain/Indicator: TA1538, Metabolic Activation: NONE, Method: STANDARD PLATE.

Turning to `[O]=[W](=[O])([OH])[OH]`, the mutagenic call is, setting by setting: under setting [1], “inactive; negative”; (Test System: AMES SALMONELLA TYPHIMURIUM, Strain/Indicator: TA98, Metabolic Activation: RAT LIVER S-9, PHENOBARBITAL AND BETA-NAPHTHOFLAVONE, Method: PREINCUBATION) “inactive; negative”; under setting [2], “inactive; negative”; (Test System: AMES SALMONELLA TYPHIMURIUM, Strain/Indicator: TA100, Metabolic Activation: RAT LIVER S-9, PHENOBARBITAL AND BETA-NAPHTHOFLAVONE, Method: PREINCUBATION) “inactive; negative”; under setting [3], “inactive; negative”; (Test System: AMES SALMONELLA TYPHIMURIUM, Strain/Indicator: TA1535, Metabolic Activation: RAT LIVER S-9, PHENOBARBITAL AND BETA-NAPHTHOFLAVONE, Method: PREINCUBATION) “inactive; negative”. In addition, the mutagenic call reads like this: under setting [4], “inactive; negative”; (Test System: AMES SALMONELLA TYPHIMURIUM, Strain/Indicator: TA1537, Metabolic Activation: RAT LIVER S-9, PHENOBARBITAL AND BETA-NAPHTHOFLAVONE, Method: PREINCUBATION) “inactive; negative”; (Test System: AMES SALMONELLA TYPHIMURIUM, Strain/Indicator: TA1538, Metabolic Activation: NONE, Method: PREINCUBATION) “inactive; negative”; (Test System: AMES SALMONELLA TYPHIMURIUM, Strain/Indicator: TA1538, Metabolic Activation: RAT LIVER S-9, PHENOBARBITAL AND BETA-NAPHTHOFLAVONE, Method: PREINCUBATION) “inactive; negative”; (Test System: E.COLI, Strain/Indicator: WP2UVRA, Metabolic Activation: NONE, Method: PREINCUBATION) “inactive; negative”; (Test System: E.COLI, Strain/Indicator: WP2UVRA, Metabolic Activation: RAT LIVER S-9, PHENOBARBITAL AND BETA-NAPHTHOFLAVONE, Method: PREINCUBATION) “inactive; negative”.
For `CC(C)(C)NCC(O)c1cc(Cl)c(N)c(C(F)(F)F)c1` (stereo unspecified), the mutagenic call is “inactive; negative” under setting [5]; “inactive; negative” (Test System: AMES SALMONELLA TYPHIMURIUM, Strain/Indicator: TA98, Metabolic Activation: RAT, LIVER, S-9, PCB, Method: STANDARD PLATE); “inactive; negative” under setting [6]; “inactive; negative” (Test System: AMES SALMONELLA TYPHIMURIUM, Strain/Indicator: TA100, Metabolic Activation: RAT, LIVER, S-9, PCB, Method: STANDARD PLATE); “inactive; negative” under setting [7]; “inactive; negative” (Test System: AMES SALMONELLA TYPHIMURIUM, Strain/Indicator: TA1535, Metabolic Activation: RAT, LIVER, S-9, PCB, Method: STANDARD PLATE). Moreover, the mutagenic call under setting [8] is “inactive; negative”; the mutagenic call (Test System: AMES SALMONELLA TYPHIMURIUM, Strain/Indicator: TA1537, Metabolic Activation: RAT, LIVER, S-9, PCB, Method: STANDARD PLATE) is “inactive; negative”; the mutagenic call under setting [9] was “inactive; negative”; the mutagenic call (Test System: AMES SALMONELLA TYPHIMURIUM, Strain/Indicator: TA1538, Metabolic Activation: RAT, LIVER, S-9, PCB, Method: STANDARD PLATE) is “inactive; negative”.
In the case of `CN(C)c1ncnc2nc[nH]c12`, the mutagenic call reads like this: under setting [1], “inactive; negative”; (Test System: AMES SALMONELLA TYPHIMURIUM, Strain/Indicator: TA98, Metabolic Activation: RAT, LIVER, S9, Method: PREINCUBATION) “inactive; negative”; under setting [2], “inactive; negative”; (Test System: AMES SALMONELLA TYPHIMURIUM, Strain/Indicator: TA100, Metabolic Activation: RAT, LIVER, S9, Method: PREINCUBATION) “inactive; negative”; under setting [3], “active; positive”; (Test System: AMES SALMONELLA TYPHIMURIUM, Strain/Indicator: TA1535, Metabolic Activation: RAT, LIVER, S9, Method: PREINCUBATION) “active; positive”. The mutagenic call under setting [4] was “inactive; negative”; the mutagenic call (Test System: AMES SALMONELLA TYPHIMURIUM, Strain/Indicator: TA1537, Metabolic Activation: RAT, LIVER, S9, Method: PREINCUBATION) is “inactive; negative”; the mutagenic call (Test System: E. COLI, Strain/Indicator: WP2UVRA, Metabolic Activation: NONE, Method: PREINCUBATION) was “inactive; negative”; the mutagenic call (Test System: E. COLI, Strain/Indicator: WP2UVRA, Metabolic Activation: RAT, LIVER, S9, Method: PREINCUBATION) is “inactive; negative”.
For `CC(=O)N[C@@H](CS)C(=O)O`, the mutagenic call reads like this: (Test System: AMES SALMONELLA TYPHIMURIUM, Strain/Indicator: TA92, Metabolic Activation: NONE, Method: STANDARD PLATE) “inactive; negative”; (Test System: AMES SALMONELLA TYPHIMURIUM, Strain/Indicator: TA92, Metabolic Activation: RAT, KIDNEY, S-9, Method: STANDARD PLATE) “active; positive”; (Test System: AMES SALMONELLA TYPHIMURIUM, Strain/Indicator: TA97, Metabolic Activation: NONE, Method: STANDARD PLATE) “inactive; negative”; (Test System: AMES SALMONELLA TYPHIMURIUM, Strain/Indicator: TA97, Metabolic Activation: RAT, KIDNEY, S-9, Method: STANDARD PLATE) “active; positive”; (Test System: AMES SALMONELLA TYPHIMURIUM, Strain/Indicator: TA102, Metabolic Activation: NONE, Method: STANDARD PLATE) “inactive; negative”; (Test System: AMES SALMONELLA TYPHIMURIUM, Strain/Indicator: TA104, Metabolic Activation: NONE, Method: STANDARD PLATE) “inactive; negative”. Besides, the mutagenic call (Test System: AMES SALMONELLA TYPHIMURIUM, Strain/Indicator: TA104, Metabolic Activation: RAT, KIDNEY, S-9, Method: STANDARD PLATE) is “active; positive” and the mutagenic call (Test System: CHINESE HAMSTER V-79, Strain/Indicator: V-79/6-THIOGUANINE, Metabolic Activation: NONE, Method: STANDARD PLATE) was “inactive; negative”.
For the compound `CCCCCCCCCCCCCCCC(=O)OC[C@H](O)[C@H]1OC(=O)C(O)=C1O`, the mutagenic call runs as follows: (Test System: AMES SALMONELLA TYPHIMURIUM, Strain/Indicator: TA97, Metabolic Activation: NONE, Method: PREINCUBATION) “inactive; negative”; (Test System: AMES SALMONELLA TYPHIMURIUM, Strain/Indicator: TA97, Metabolic Activation: RAT, LIVER, S-9, AROCLOR 1254, Method: PREINCUBATION) “inactive; negative”; under setting [5], “inactive; negative”; (Test System: AMES SALMONELLA TYPHIMURIUM, Strain/Indicator: TA98, Metabolic Activation: RAT, LIVER, S-9, AROCLOR 1254, Method: STANDARD PLATE) “inactive; negative”; under setting [6], “inactive; negative”; (Test System: AMES SALMONELLA TYPHIMURIUM, Strain/Indicator: TA100, Metabolic Activation: RAT, LIVER, S-9, AROCLOR 1254, Method: STANDARD PLATE) “inactive; negative”. Moreover, the mutagenic call reads like this: (Test System: AMES SALMONELLA TYPHIMURIUM, Strain/Indicator: TA102, Metabolic Activation: NONE, Method: PREINCUBATION) “inactive; negative”; (Test System: AMES SALMONELLA TYPHIMURIUM, Strain/Indicator: TA102, Metabolic Activation: RAT, LIVER, S-9, AROCLOR 1254, Method: PREINCUBATION) “inactive; negative”; under setting [7], “inactive; negative”; (Test System: AMES SALMONELLA TYPHIMURIUM, Strain/Indicator: TA1535, Metabolic Activation: RAT, LIVER, S-9, AROCLOR 1254, Method: STANDARD PLATE) “inactive; negative”; under setting [8], “inactive; negative”; (Test System: AMES SALMONELLA TYPHIMURIUM, Strain/Indicator: TA1537, Metabolic Activation: RAT, LIVER, S-9, AROCLOR 1254, Method: STANDARD PLATE) “inactive; negative”. The mutagenic call under setting [9] is “inactive; negative”; the mutagenic call (Test System: AMES SALMONELLA TYPHIMURIUM, Strain/Indicator: TA1538, Metabolic Activation: RAT, LIVER, S-9, AROCLOR 1254, Method: STANDARD PLATE) was “inactive; negative”; the mutagenic call (Test System: E. COLI, Strain/Indicator: WP2, Metabolic Activation: NONE, Method: STANDARD PLATE) is “inactive; negative”; the mutagenic call (Test System: E. COLI, Strain/Indicator: WP2, Metabolic Activation: RAT, LIVER, S-9, AROCLOR 1254, Method: STANDARD PLATE) was “inactive; negative”.
